Laboratory results taken from ChEMBL document CHEMBL4419176, “Compositions and methods for treating cancer” (2017).
Calls of active or inactive are those of the source. No cut-off for these calls is given here.

How the values were obtained:
[1] = molecular target: Diacylglycerol kinase alpha (Homo sapiens) (UniProt P23743); test: Inhibition of FLAG-tagged DGKa (unknown origin) using lipids and [gamma-32P]-ATP incubated for 15 mins by scintillation counting method
U-251 [2] = test: Cytotoxicity in human U251 cells assessed as reduction in cell viability at 25 to 75 uM by alamar blue dye based assay; assay type: functional
VMM39 [3] = test: Cytotoxicity in human VMM39 cells assessed as reduction in cell viability at 25 to 150 uM by alamar blue dye based assay; assay type: functional
[4] = Cytotoxicity in human JWL578 cells assessed as reduction in cell viability incubated for 2 to 4 days by Trypan blue exclusion based hemocytometry; assay type: functional
Astrocyte [5] = test: Cytotoxicity against immortalized astrocytes (unknown origin) assessed as reduction in cell viability at >20 uM incubated for 2 to 4 days by Trypan blue exclusion based hemocytometry
U-251 [6] = test: Induction of apoptosis in human U251 cells at 10 to 20 uM by Annexin V-PE and 7-AAD staining based flow cytometry; assay type: functional, cell-based
VMM39 [7] = test: Induction of apoptosis in human VMM39 cells at 10 to 20 uM by Annexin V-PE and 7-AAD staining based flow cytometry; assay type: functional, cell-based
U-251 [8] = test: Induction of apoptosis in human U251 cells at 10 to 20 uM in presence of apoptosis inhibitor ZVAD-FMK by Annexin V-PE and 7-AAD staining based flow cytometry; assay type: functional, cell-based
VMM39 [9] = test: Induction of apoptosis in human VMM39 cells at 10 to 20 uM in presence of apoptosis inhibitor ZVAD-FMK by Annexin V-PE and 7-AAD staining based flow cytometry; assay type: functional, cell-based
U-251 [10] = test: Induction of autophagy in human U251 cells assessed as LC3-II accumulation at 10 to 20 uM by immunoblot analysis; assay type: functional, cell-based
U-251 [11] = test: Induction of autophagy in human U251 cells assessed as LC3-II accumulation at 10 uM in presence of 20 uM chloroquine by immunoblot analysis; assay type: functional, cell-based
U-251 [12] = test: Cytotoxicity in human U251 cells assessed as reduction in cell viability at 10 uM in presence of phosphatidic acid incubated for 2 to 4 days by Trypan blue exclusion based hemocytometry; assay type: functional
Homo sapiens [13] = organism: Homo sapiens; test: Cytotoxicity in human JWL578 cells assessed as reduction in cell viability at 10 uM in presence of phosphatidic acid incubated for 2 to 4 days by Trypan blue exclusion based hemocytometry; assay type: functional
[14] = molecular target: Diacylglycerol kinase alpha (Homo sapiens) (UniProt P23743); test: Inhibition of DGKa in human U251 cells transfected with mTOR promoter assessed as decrease in mTOR promoter activity at 20 uM incubated for 36 to 48 hrs by luciferase reporter gene assay; assay type: cell-based
[15] = molecular target: Diacylglycerol kinase alpha (Homo sapiens) (UniProt P23743); test: Inhibition of DGKa in human JWL578 cells transfected with mTOR promoter assessed as decrease in mTOR promoter activity at 20 uM incubated for 36 to 48 hrs by luciferase reporter gene assay; assay type: cell-based
[16] = molecular target: Diacylglycerol kinase alpha (Homo sapiens) (UniProt P23743); test: Inhibition of DGKa in human U251 cells transfected with HIF1a promoter assessed as decrease in HIF1a promoter activity at 20 uM incubated for 36 to 48 hrs by luciferase reporter gene assay; assay type: cell-based
[17] = molecular target: Diacylglycerol kinase alpha (Homo sapiens) (UniProt P23743); test: Inhibition of DGKa in human U251 cells assessed as HSP60 protein level at 15 uM incubated for 24 hrs by dot-blot proteomics assay relative to baseline; assay type: cell-based; design: scale not given: the % may be the effect or the level left
[18] = molecular target: Diacylglycerol kinase alpha (Homo sapiens) (UniProt P23743); test: Inhibition of DGKa in human U251 cells assessed as reduction in P70 S6K phosphorylation at T389/T421 residues at 15 uM incubated for 24 hrs by dot-blot proteomics assay relative to baseline; assay type: cell-based
[19] = molecular target: Diacylglycerol kinase alpha (Homo sapiens) (UniProt P23743); test: Inhibition of DGKa in human U251 cells assessed as reduction in p53 phosphorylation at S15 residues at 15 uM incubated for 24 hrs by dot-blot proteomics assay relative to baseline; assay type: cell-based
[20] = molecular target: Diacylglycerol kinase alpha (Homo sapiens) (UniProt P23743); test: Inhibition of DGKa in human U251 cells assessed as reduction in p53 phosphorylation at S15 residues at 12.5 to 17.5 uM incubated for 24 hrs by immunoblot analysis; assay type: cell-based
[21] = molecular target: Diacylglycerol kinase alpha (Homo sapiens) (UniProt P23743); test: Inhibition of DGKa in human VMM39 cells assessed as reduction in p53 phosphorylation at S15 residues at 12.5 to 17.5 uM incubated for 24 hrs by immunoblot analysis; assay type: cell-based
U-251 [22] = test: Antitumor activity against human U251 cells xenografted in athymic nu/nu mouse assessed as increase in mouse survival at 50 mg/kg dosed via daily oral gavage starting 7 days post-tumor implantation and measured up to 50 days post tumor implantation; assay type: functional, organism-based
GL261 [23] = test: Antitumor activity against mouse GL261 cells implanted in mouse syngeneic immunocompetent tumor model assessed as reduction in tumor size at 50 mg/kg dosed via daily oral gavage starting 6 days post-tumor implantation and measured up to 100 days post tumor implantation by magnetic resonance imaging analysis; assay type: functional, organism-based
VMM39 [24] = test: Antitumor activity against human VMM39 cells xenografted in athymic nu/nu mouse assessed as induction of delay in tumor formation at 50 mg/kg dosed via daily oral gavage; assay type: functional, organism-based
A-375 [25] = test: Antitumor activity against human A375 cells xenografted in athymic nu/nu mouse assessed as increase in mouse survival at 50 mg/kg dosed via daily oral gavage starting 6 days post-tumor implantation and measured up to 50 days post tumor implantation; assay type: functional, organism-based
VMM39 [26] = test: Antitumor activity against human VMM39 cells xenografted in athymic nu/nu mouse assessed as induction of delay in tumor formation at 10 mg/kg dosed via daily oral gavage; assay type: functional, organism-based
A-375 [27] = test: Antitumor activity against human A375 cells xenografted in athymic nu/nu mouse assessed as reduction in tumor volume at 50 mg/kg dosed via daily oral gavage starting 6 days post-tumor implantation and measured up to 50 days post tumor implantation; assay type: functional, organism-based
GL261 [28] = test: Antitumor activity against mouse GL261 cells implanted in mouse syngeneic immunocompetent tumor model assessed as reduction in tumor volume at 100 mg/kg dosed via daily oral gavage starting 6 days post-tumor implantation and measured up to 100 days post tumor implantation; assay type: functional, organism-based
U-251 [29] = test: Synergistic cytotoxicity in human U251 cells assessed as reduction in cell viability at 7.5 uM in presence of 50 uM TMZ by alamar blue dye based assay; assay type: functional
VMM39 [30] = test: Synergistic cytotoxicity in human VMM39 cells assessed as reduction in cell viability at 7.5 uM in presence of 50 uM TMZ by alamar blue dye based assay; assay type: functional
U-251 [31] = test: Cytotoxicity in human U251 cells assessed as reduction in cell viability at 2.5 to 17.5 uM by alamar blue dye based assay; assay type: functional
VMM39 [32] = test: Cytotoxicity in human VMM39 cells assessed as reduction in cell viability at 2.5 to 22.5 uM by alamar blue dye based assay; assay type: functional
U-251 [33] = test: Cytotoxicity in human U251 cells assessed as reduction in cell viability at 10 uM in presence of 20 uM chloroquine incubated for 2 to 4 days by Trypan blue exclusion based hemocytometry; assay type: functional
GL261 [34] = test: Cytotoxicity in mouse GL261 cells assessed as reduction in cell viability at 10 uM in presence of 10 uM chloroquine incubated for 2 to 4 days by Trypan blue exclusion based hemocytometry; assay type: functional
Astrocyte [35] = test: Cytotoxicity against immortalized astrocytes (unknown origin) assessed as reduction in cell viability at 10 to 15 uM in presence of 10 uM chloroquine incubated for 2 to 4 days by Trypan blue exclusion based hemocytometry
VMM39 [36] = test: Cytotoxicity in human VMM39 cells assessed as reduction in cell viability at 15 uM in presence of 10 uM chloroquine incubated for 2 to 4 days by Trypan blue exclusion based hemocytometry; assay type: functional
B16 = test: Cytotoxicity in mouse B16 cells assessed as reduction in cell viability at 10 uM in presence of 5 uM chloroquine incubated for 2 to 4 days by Trypan blue exclusion based hemocytometry; assay type: functional
Homo sapiens [37] = organism: Homo sapiens; test: Cytotoxicity in G528 cells (unknown origin) assessed as reduction in cell viability at 10 to 15 uM in presence of 10 uM chloroquine incubated for 2 to 4 days by Trypan blue exclusion based hemocytometry; assay type: functional
Homo sapiens [38] = organism: Homo sapiens; test: Cytotoxicity in G34 cells (unknown origin) assessed as reduction in cell viability at 10 uM in presence of 5 uM chloroquine incubated for 2 to 4 days by Trypan blue exclusion based hemocytometry; assay type: functional
[39] = Selectivity ratio of cytotoxicity against human mesenchymal GBM cells to cytotoxicity against human non-mesenchymal cells at 1 to 30 uM; assay type: functional
Homo sapiens [40] = test: Antitumor activity against human G2 cells xenografted in orally dosed mouse assessed as increase in median mouse survival; assay type: functional, organism-based
Homo sapiens [41] = organism: Homo sapiens; test: Cytotoxicity in human GB816 cells with TNFalpha-induced proneural-to- mesenchymal transition at 8 uM; assay type: functional, cell-based
Homo sapiens [42] = organism: Homo sapiens; test: Cytotoxicity in human GB464 cells with TNFalpha-induced proneural-to- mesenchymal transition at 8 uM; assay type: functional, cell-based
A549 = test: Cytotoxicity in human A549 cells with TNFalpha-induced epithelial-mesenchymal transition at 15 uM; assay type: functional, cell-based
Homo sapiens [43] = organism: Homo sapiens; test: Cytotoxicity in human MPanc96 cells with TNFalpha-induced epithelial-mesenchymal transition at 15 uM; assay type: functional, cell-based
[44] = molecular target: Diacylglycerol kinase alpha (Homo sapiens) (UniProt P23743); test: Inhibition of DGKa in human G2 cells assessed as decrease in NF-kappaB expression under 4 Gy irradiation by luciferase reporter gene assay; assay type: cell-based
[45] = molecular target: Diacylglycerol kinase alpha (Homo sapiens) (UniProt P23743); test: Inhibition of DGKa in human G88 cells assessed as decrease in NF-kappaB expression under 4 Gy irradiation by luciferase reporter gene assay; assay type: cell-based
[46] = molecular target: Diacylglycerol kinase alpha (Homo sapiens) (UniProt P23743); test: Inhibition of DGKa in human G88 cells assessed as decrease in RhoA expression by ELISA; assay type: cell-based
[47] = molecular target: Diacylglycerol kinase alpha (Homo sapiens) (UniProt P23743); test: Inhibition of DGKa in human G2 cells assessed as decrease in RhoA expression by ELISA; assay type: cell-based
[48] = molecular target: Diacylglycerol kinase alpha (Homo sapiens) (UniProt P23743); test: Inhibition of DGKa in human G2 cells assessed as decrease in GGTase-1 by measuring increase in unprenylated ras-related protein RaplA expression by immunoblot analysis; assay type: cell-based
[49] = molecular target: Diacylglycerol kinase alpha (Homo sapiens) (UniProt P23743); test: Inhibition of DGKa in human G88 cells assessed as decrease in GGTase-1 by measuring increase in unprenylated ras-related protein RaplA expression by immunoblot analysis; assay type: cell-based
Homo sapiens [50] = organism: Homo sapiens; test: Increase in PDGFRA expression in human G2 cells at 3 uM by immunoblot analysis; assay type: functional, cell-based
Homo sapiens [51] = organism: Homo sapiens; test: Increase in PDGFRA expression in human G88 cells at 3 uM by immunoblot analysis; assay type: functional, cell-based
[52] = Synergistic cytotoxicity in human G2 cells assessed as combination index at 2 uM in presence of imatinib incubated for 5 days; assay type: functional
[53] = Synergistic cytotoxicity in human G88 cells assessed as combination index at 2 uM in presence of imatinib incubated for 5 days; assay type: functional

Sequence of Diacylglycerol kinase alpha (Homo sapiens) (P23743 whole entry): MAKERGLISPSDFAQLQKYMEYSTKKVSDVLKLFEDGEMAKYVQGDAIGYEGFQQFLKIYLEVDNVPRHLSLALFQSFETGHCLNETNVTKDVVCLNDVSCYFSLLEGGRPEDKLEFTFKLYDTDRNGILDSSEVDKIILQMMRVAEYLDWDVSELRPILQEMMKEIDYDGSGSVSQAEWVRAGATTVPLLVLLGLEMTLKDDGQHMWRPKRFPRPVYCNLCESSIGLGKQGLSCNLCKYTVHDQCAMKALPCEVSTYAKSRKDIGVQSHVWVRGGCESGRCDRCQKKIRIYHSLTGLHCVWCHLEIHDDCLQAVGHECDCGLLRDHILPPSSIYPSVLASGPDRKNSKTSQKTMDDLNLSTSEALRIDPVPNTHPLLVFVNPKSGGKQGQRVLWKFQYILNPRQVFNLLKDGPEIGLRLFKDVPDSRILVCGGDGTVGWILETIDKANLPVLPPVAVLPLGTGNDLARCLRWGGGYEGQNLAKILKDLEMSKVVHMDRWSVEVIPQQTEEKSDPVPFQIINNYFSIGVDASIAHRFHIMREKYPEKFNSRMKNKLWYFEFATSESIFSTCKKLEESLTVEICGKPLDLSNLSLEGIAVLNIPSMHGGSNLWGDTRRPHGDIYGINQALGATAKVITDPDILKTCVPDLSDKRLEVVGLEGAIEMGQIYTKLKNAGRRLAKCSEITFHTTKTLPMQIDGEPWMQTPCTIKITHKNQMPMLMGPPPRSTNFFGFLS

Cc1nc2sccn2c(=O)c1CCN1CCC(=C(c2ccccc2)c2ccc(F)cc2)CC1
inhibition [1]: Dose-dependent effect

Cn1nnc2c(C(N)=O)ncn2c1=O
Activity (U-251 [2]): inactive | Activity (VMM39 [3]): inactive

Cc1nc2sccn2c(=O)c1CCN1CCC(=C(c2ccc(F)cc2)c2ccc(F)cc2)CC1 [RITANSERIN]
inhibition [1]: Dose-dependent effect | IC50 [4]: 5 to 10 µM | Activity (Astrocyte [5]): Non-Toxic | Activity (U-251 [6]): Active | Activity (VMM39 [7]): Active | Activity (U-251 [8]): Active | Activity (VMM39 [9]): Active | Activity (U-251 [10]): Active | Activity (U-251 [11]): Active | Activity (U-251 [12]): inactive | Activity (Homo sapiens [13]): inactive | inhibition [14]: Active | inhibition [15]: Active | inhibition [16]: Active | Activity [17]: 10% | inhibition [18]: Active | inhibition [19]: Active | inhibition [20]: Active | inhibition [21]: Active | Activity (U-251 [22]): Active | Activity (GL261 [23]): Active | Activity (VMM39 [24]): Active | Activity (A-375 [25]): Active | Activity (VMM39 [26]): inactive | Activity (A-375 [27]): Active | Activity (GL261 [28]): Active | Activity (U-251 [29]): <=90% | Activity (VMM39 [30]): <=90% | Activity (U-251 [31]): inactive | Activity (VMM39 [32]): inactive | Activity (U-251 [33]): Active | Activity (GL261 [34]): Active | Activity (Astrocyte [35]): Non-Toxic | Activity (VMM39 [36]): Active | Activity (B16): Active | Activity (Homo sapiens [37]): Active | Activity (Homo sapiens [38]): Active | Ratio [39]: 3 - 4 | Activity (Homo sapiens [40]): Active | Activity (Homo sapiens [41]): Active | Activity (Homo sapiens [42]): Active | Activity (A549): Active | Activity (Homo sapiens [43]): Active | inhibition [44]: Active | inhibition [45]: Active | inhibition [46]: Active | inhibition [47]: Active | inhibition [48]: Active | inhibition [49]: Active | Activity (Homo sapiens [50]): Active | Activity (Homo sapiens [51]): Active | CI [52]: 0.24 | CI [53]: 0.25
